Series [1] deals with PEM (TNF-α, IL-1α, IL-6, NO). The series can be described thus: Cytokine and nitrite production by PEM (ELISA, Griess). The class given is cell-based, mouse. The note with it: PEM treated with LPS or MLV-JBT3002, genistein 100 μM, PD-98059 10 μM, calphostin-C 250 nM. As for the experimental part:
Peritoneal exudate macrophages (PEM) were collected by peritoneal lavage from mice given an intraperitoneal injection of 1.5 ml of thioglycollate broth (Baltimore Biological Laboratory, Cockeysville, Md.) 4 days before harvest.(Saiki I, et al. J Immunol (1985) 135:684 688; Dong Z, et a.l J Leukoc Biol (1993) 53:53-60; Dong Z, J et al. J Exp Med (1993) 177:1071-1077) The PEM were washed in CA^2+- and MG^2+-free HBSS and resuspended in serum-free medium: 1×10^5 cells were plated into each 38-mm^2 well of 96-well culture plates (Falcon Plastics, Oxnard, Calif.). After a 90-minute incubation, the nonadherent cells were removed by washing them with medium. More than 98% of the adherent cell populations were macrophages according to morphology and phagocytic criteria. (Saiki I, et al. J Immunol (1985) 135:684 688)
PEM in 96-well plates at a density of 10^5 cells/well/200 μl of medium were treated as indicated in Results. The culture supernatants were harvested and used immediately for the cytokine assays or stored at −70° C. For cell lysates, supernatants were removed and macrophages were frozen-thawed in fresh medium. Specific cytokines in the supernatants or cell lysates (diluted at 1:5 or 1:10) were measured by ELISA kits according to manufacturer's instructions.
The nitrite concentration in culture supernatants was determined by a microplate assay as described previously. Briefly, 50-μl samples harvested from PEM-conditioned medium were treated with an equal volume of Griess reagent (1% sulfanilamide, 0.1% naphthylene diamine dihydrochloride, and 2.5% H3PO4) at room temperature for 10 minutes. The absorbance at 540 nm was monitored with a microplate reader. The nitrite concentration was determined using sodium nitrite as a standard.
(ELISA stands for enzyme-linked immunosorbent assay.)

Another series concerns K-1735 M2 cells. Description: Macrophage-mediated cytotoxicity against K-1735 M2 cells. The class given is cell-based, mouse. Particulars: PEM activated by JBT3002.
Another series deals with tumor cells. The series can be described thus: Macrophage-mediated tumor cytotoxicity, target cells not named. Format: cell-based. The note with it: PEM with 50 umol/well MLV (0.1 mg JBT3002/300 μM phospholipid) in the presence of 2 mM NMA. As for the experimental part: Cytotoxicity was assayed by measuring release of radioactivity from target cell DNA as described previously (Dong Z, et al. J Exp Med (1993) 177:1071-7). Briefly, tumor target cells in their exponential growth phase were incubated in medium containing 0.25 μCi/ml of [^3H]TdR (sp. Act. 2 Ci/mmol) (ICN Biomedicals, Inc., Irvine, Calif.) for 24 h. The cells were washed three times with HBSS to remove unbound radioactivity and then harvested by trypsinization (0.25% trypsin in 0.02% EDTA), washed, and resuspended in medium. Cells were plated (at 1×10^4/well) into wells containing control or test macrophages to achieve an E/T cell ratio of 10:1. At this density, macrophages incubated in medium (control) were not cytotoxic to neoplastic cells (Weinstein SL, et al. Proc Natl Acad Sci USA (1991) 88:4148-52; Dong Z, et al. JLeukoc Biol (1993) 53:53-60). […] The lysate was harvested with harvester 96 (Tomtec, Orange, Conn.) and counted for residual radioactivity in a liquid scintillation counter. Macrophage-mediated cytotoxicity was calculated as follows: […]
Efficient activation of macrophages by LPS requires priming by IFN-γ (Saiki I, et al. J Immunol (1985) 135:684-8). […] Tumor cytotoxicity was measured 72 h after the addition of radiolabeled tumor cells to the activated macrophages. […]

The subject of series [2] is peritoneal exudate macrophages (PEM). The series can be described thus: Nitrite (NO) production by mouse peritoneal exudate macrophages. Particulars: PEM with 50 umol/well MLV (0.1 mg JBT3002/300 μM phospholipid) in the presence of 2 mM NMA. The class given is cell-based. As for the experimental part:
Peritoneal exudate macrophages (PEM) were collected by peritoneal lavage from mice given an intraperitoneal injection of 2.0 ml of thioglycollate broth (Baltimore Biological Laboratory, Cockeysville, Md.) 4 days before harvest (Dong Z, O'Brian C A, et al. J Leukoc Biol (1993) 53:53-60; Xie K, Huang S, et al. Cancer Res (1995) 55:3123-31). The PEM were washed in Ca^+2- an Mg^2+-free HBSS and resuspended in serum-free medium: 1×10^5 cells were plated into each 38-mm^2 well of 96-2311 culture plates (Falcon Plastics, Oxnard, Calif.). After a 90-min incubation, the nonadherent cells were removed by washing with medium. More than 98% of the adherent cell populations were macrophages according to morphology and phagocytic criteria (Saiki I, et al. J Immunol (1985) 135:684-8). […] After treatment, the cultures were washed and macrophage-mediated cytotoxicity against different tumor targets was determined. […]
Nitrite accumulation in the culture supernatant was measured in a colorimetric assay as described previously (Ding A E, et al. J Immunol (1988) 141:2407-12). […] The mixtures were incubated 10 min with shaking, and A540 was measured with the use of a microplate reader (Model 3550; Bio-Rad Corp., San Francisco, Calif.). The concentration of nitrite was determined by comparing it with a standard solution of sodium nitrite in medium.

For the compound `O=c1c(-c2ccc(O)cc2)coc2cc(O)cc(O)c12` [genistein, Genistein], the “effect of kinase inhibitor on production of NO” value in series [1] is given as “significantly inhibited”. The “effect of kinase inhibitor on production of TNF-α” value in series [1] (H-89) is “significantly inhibited”. The minimal inhibition dose in the series with K-1735 M2 cells lay in the range of 30 to 40 µM.
As for `CNC(=N)NCCC[C@H](N)C(=O)O` [NMA, N^G-monomethyl-L-arginine], in the series with tumor cells, the tumor cytotoxicity is 1.3%. Also, the NO in series [2] is 1.6 µM.

The record behind these values is patent publication US20030017976A1, “Therapeutic properties of liposome-encapsulated immunomodulators” (priority 1998, published 2003).
